Measured values reported in US12673918B2, “Small molecule RPN13 inhibitors with antitumor properties” (The Johns Hopkins University, priority 2019, dated 2026).
Like-named read-outs stand apart in the source and are kept apart here.

Assays:
SKOV3 = assay: MTT cytotoxicity assay, SKOV3; details: Homo sapiens
Description: (§1) Cell lines and cytotoxicity assays: All cell lines were obtained from the American Type Culture Collection (ATCC) and cultured in the specified medium supplemented with 10% fetal bovine serum, 100 IU/mL penicillin, and 100 μg/mL streptomycin at 37° C. in a humidified 5% CO2/95% air incubator. […] To assess drug cytotoxicity, cells were seeded at 2,500 cells/well (10,000 cells/well for MM lines) in 100 μL medium in 96-well plate and after 24 treated with compounds for 72 h, incubated according to the manufacturer's protocol with the Thiazolyl Blue Tetrazolium Bromide (Sigma, M2128) and A570 measured using a Benchmark Plus microplate spectrophotometer (BIO-RAD). IC50 data was analyzed by Graphpad Prism software.

[1] = system: HFF (Human Foreskin Fibroblast); assay: MTT cytotoxicity assay, HFF normal cells; assay type: cell-based; details: read-out: IC50 HFF
Description: as §1

HCT116 = assay: MTT cytotoxicity assay, HCT116
KLE = assay: MTT cytotoxicity assay, KLE; details: read-out: cytotoxicity IC50 KLE, Tables 3A/4B/4C
HEC-1A = assay: MTT cytotoxicity assay, HEC-1A; details: read-out: cytotoxicity IC50 HEC-1A, Tables 3A/4B/4C
SUM149 = assay: cells; details: SUM149, read-out: cytotoxicity IC50 SUM149
Description: (§2) Cell lines and cytotoxicity assays: All cell lines were obtained from the American Type Culture Collection (ATCC) and cultured in the specified medium supplemented with 10% fetal bovine serum, 100 IU/mL penicillin, and 100 μg/mL streptomycin at 37° C. in a humidified 5% CO2/95% air incubator. […] To assess drug cytotoxicity, cells were seeded at 2,500 cells/well (10,000 cells/well for MM lines) in 100 μL medium in 96-well plate and after 24 treated with compounds for 72 h, incubated according to the manufacturer's protocol with the Thiazolyl Blue Tetrazolium Bromide (Sigma, M2128) and A570 measured using a Benchmark Plus microplate spectrophotometer (BIO-RAD). IC50 data was analyzed by Graphpad Prism software. In the chirality studies the cells were treated with compounds for 48 h, and the cells were incubated and measured via the preceeding protocols.

intracellular GSH = assay: Total GSH assay, ES2 cells; assay type: cell-based, human; details: ES2, 12 hr
Text: FIG. 16B illustrates ES2 cells treated with compounds for 12 hr and the total GSH level assayed.
Recent insights indicate that ER stress and oxidative stress are highly interrelated biological process which regulate a wide range of signaling pathways in cells. […] Oxidative stress is characterized by an imbalance between the production of ROS and the availability of free GSH. Generation of ROS is considered an early event in the process of apoptotic cell death (68). To counteract ROS, cells upregulate antioxidant pathways including intracellular glutathione (GSH).
Luciferase and GSH assays: Sub-confluent cultures of cells were transfected with 4Ub-FL or FL plasmid using Lipofectamine 2000 reagent (Life Technologies). Cells were seeded at 10,000 cells/well in 96-wells plate 48 hr post transfection and incubated with compounds or vehicle (DMSO) at the doses and times indicated. Luciferase activity in cell lysate was determined with a luciferase assay kit (Promega) according to the manufacturer's instructions. Bioluminescence was measured by using a Glomax Multidetection system (Promega). Glutathione was assayed using the Promega GSH assay kit (V6611).

CHOP-10 mRNA = assay: RT-qPCR of CHOP-10 mRNA, ES2 cells; assay type: cell-based, human; details: ES2, 0.5 μM, 12 hr
Description: FIG. 7A illustrates ES2 cells (250,000 cells/well) treated with compounds at 1 μM for 12 hr and mRNA was isolated. Samples were subjected to RT-qPCR to measure CHOP10 and mRNA levels normalized to GAPDH expression. Significance versus DMSO control (ns=not significant, ** <0.01, *** <0.001, **** <0.0001).
FIG. 16A illustrates ES2 cells treated with compounds (0.5 μM) for 12 hr and CHOP-10 mRNA levels, an ER stress marker, which was analyzed by qRT-PCR.
Q-PCR to measure mRNA levels: Total RNA was isolated from cells using the RNeasy mini kit (Qiagen) according to the manufacturer's instructions. Extracted RNA was normalized for concentration and reverse transcribed using an iScript cDNA synthesis kit (Bio-Rad) according to the manufacturer's instructions. CHOP10 expression levels were measured by Taqman gene expression assays with Taqman gene expression master mix (Applied Biosystems) and run with a standard thermal cycling protocol. Spliced XBP1 mRNA was assayed with SsoFast EvaGreen Supermix (Bio-rad) following the protocol for the iCycler System using as primers: F: 5′-[…]-3′ and R: 5′-[…]-3′. Calculations were done according to the Livak method and normalized to the reference gene GAPDH. Each condition was replicated three times; each sample was run in triplicate.

PEO4 = assay: cells; details: PEO4, read-out: cytotoxicity IC50 PEO4
Description: as §2

BR5-FvB1 = assay: MTT cytotoxicity assay, BR5-FvB1; details: Mus musculus, read-out: cytotoxicity IC50 BR5-FvB1
Description: as §2

PEO1 = assay: cells; details: Homo sapiens, PEO1, read-out: cytotoxicity IC50 PEO1
Description: as §2

[2] = system: polyubiquitinated proteins; assay: Western blot of polyubiquitinated proteins, SKOV3 cells; assay type: cell-based, human; details: 4 h
Description: FIG. 14A illustrates SKOV3 cells treated with compounds for 4 h and analyzed by Western blot analysis with antibody to ubiquitin.
Antibodies, reagents, and Western Blot Analyses: Cell lysate (10-20 μg total protein) prepared in MPER (Pierce) from each sample was subjected to SDS-PAGE, transferred to PVDF membranes and analyzed by Western blot using antibodies specific Bax (#2772, Cell Signaling), ubiquitin (P4D1, sc-8017, Santa Cruz), PARP (#9542, BD Pharmingen), actin (#66009, Protein Tech Group), Tubulin(#66031, Protein Tech Group), ADRM1/Rpn13 (D9Z1U, #12019, Cell Signaling), Lys48-linkled ubiquitin (Apu 2, 05-1307, (Millipore), Annexin V (#559763, BD pharmingen), caspase-3 (51-68655X, BD Pharmingen) at the dilutions recommended by the manufacturers, and for secondary antibodies either peroxidase-linked anti-mouse IgG or anti-rabbit IgG (GE Healthcare UK Ltd) were utilized, HRP conjugated streptavidin (N100, Thermo Fisher) at the recommended dilution (1:5000). MitoTracker Red CMXRos reagent was purchased from ThermoFisher #M7512. The blots were developed using HyGLO chemiluminescent detection reagent (Denville).

PEA2 = assay: cells; details: read-out: cytotoxicity IC50 PEA2
Description: as §2

FaDu = assay: cells; details: Homo sapiens
MDA-MB231 = assay: MTT cytotoxicity assay, MDA-MB231; assay type: cell-based; details: Homo sapiens, read-out: IC50 MDA-MB231
Description: as §1

OVCAR5 = assay: MTT cytotoxicity assay, OVCAR5; assay type: cell-based; details: Homo sapiens, read-out: IC50 OVCAR5
Description: as §1

LNCaP = assay: MTT cytotoxicity assay, LNCaP; details: Homo sapiens
[3] = SK-OV-3, read-out: cytotoxicity IC50 SKOV3
[4] = Table 3, MTT, 48 hr, normal Human Foreskin Fibroblast
[5] = read-out: IC50 HCT116, Table 3, MTT, 48 hr, Colon
[6] = read-out: cytotoxicity IC50 HCT116, Tables 3A/4B/4C, MTT assay
[7] = read-out: cytotoxicity IC50 FaDu
[8] = read-out: cytotoxicity IC50 LNCAP

SMILES	IC50 (SKOV3; [3])	IC50 [1, 4]	IC50 (HCT116; [5])	IC50 (KLE)	IC50 (HEC-1A)	IC50 (SUM149)	intracellular GSH concentrations (intracellular GSH)	CHOP10 transcript levels (CHOP-10 mRNA)	IC50 (PEO4)	IC50 (BR5-FvB1)	IC50 (PEO1)	accumulation of polyubiquitinated proteins [2]	IC50 (PEA2)	IC50 ([1]; Homo sapiens, Fibroblast, 48 h)	IC50 (HCT116; [6])	IC50 (MDA-MB231; MDA-MB-231, 48 h)	IC50 (OVCAR5; OVCAR-5, 48 h)	IC50 (LNCaP; 48 h, read-out: IC50 LNCaP)	IC50 (FaDu; [7])	IC50 (LNCaP; [8])	also measured
CC(C)C[C@H](NC(=O)[C@H](Cc1ccccc1)NC(=O)c1cnccn1)B(O)O [Bortezomib, bortezomib, reference compound]	1.5 nM	> 100 nM	3.2 nM	1190 nM	153 nM	30 nM	reduced intracellular GSH concentrations	significantly increased CHOP10 transcript levels	31 nM	< 20 nM	31 nM	enhanced the accumulation of polyubiquitinated proteins	30 nM								
O=C(CCl)N[C@@H](Cc1ccccc1)C(=O)N1C/C(=C\c2ccc([N+](=O)[O-])cc2)C(=O)/C(=C/c2ccc([N+](=O)[O-])cc2)C1 [RA375]	26 nM										27 nM		60 nM	> 1000 nM	89 nM	22 nM	12 nM	60 nM			IC50 (FaDu; 48 h, read-out: IC50 FaDu): 142 nM
CC1/C(=C\c2ccc([N+](=O)[O-])cc2)C(=O)/C(=C/c2ccc([N+](=O)[O-])cc2)CN1C(=O)[C@H](Cc1ccccc1)NC(=O)CCl (stereo partly drawn) [RA414]	< 20 nM			1120 nM	196 nM	< 20 nM	reduced intracellular GSH concentrations	significantly increased CHOP10 transcript levels	30 nM		30 nM	enhanced the accumulation of polyubiquitinated proteins	30 nM		20 nM				78 nM	24 nM	
C[C@H]1/C(=C\c2ccc([N+](=O)[O-])cc2)C(=O)/C(=C/c2ccc([N+](=O)[O-])cc2)CN1C(=O)[C@@H](N)Cc1ccccc1	40 nM			1460 nM	207 nM	20 nM	reduced intracellular GSH concentrations	significantly increased CHOP10 transcript levels	41 nM	125 nM	31 nM	enhanced the accumulation of polyubiquitinated proteins	64 nM		80 nM				78 nM		
N[C@@H](Cc1ccccc1)C(=O)N1C/C(=C\c2ccc(Cl)c(Cl)c2)C(=O)/C(=C/c2ccc(Cl)c(Cl)c2)C1 [RA190, reference compound]	73 nM	> 1000 nM		1590 nM	431 nM	233 nM			168 nM	250 nM	232 nM		396 nM		239 nM				300 nM	242 nM	IC50 (MDA-MB231; MDA-MB-231, Table 3, MTT, 48 hr, Triple Negative Breast): 134 nM; IC50 (OVCAR5; OVCAR-5, Table 3, MTT, 48 hr, Ovarian): 64 nM
N[C@@H](Cc1ccccc1)C(=O)N1C/C(=C\c2ccc([N+](=O)[O-])cc2)C(=O)/C(=C/c2ccc([N+](=O)[O-])cc2)C1 [RA183, reference compound]	54 nM		193 nM	989 nM	378 nM							enhanced the accumulation of polyubiquitinated proteins		> 1000 nM	193 nM	124 nM	56 nM	186 nM	150 nM	186 nM	IC50 (SKOV3; SK-OV-3, 48 h, read-out: IC50 SKOV3): 54 nM
